SMILES strings stand for the structures. A value given as a limit tells only on which side of the number the result lay.

This experiment has as its target Integrin alpha-V/beta-3 (Homo sapiens, UniProt P05106+P06756). The experiment is described as follows: Inhibition of vitronectin binding to alphaVbeta3 integrin (unknown origin) measured after 3 hrs. Type of experiment: protein-complex assay.

Integrin alpha-V/beta-3, sequence (P05106 27-788 limits assumed): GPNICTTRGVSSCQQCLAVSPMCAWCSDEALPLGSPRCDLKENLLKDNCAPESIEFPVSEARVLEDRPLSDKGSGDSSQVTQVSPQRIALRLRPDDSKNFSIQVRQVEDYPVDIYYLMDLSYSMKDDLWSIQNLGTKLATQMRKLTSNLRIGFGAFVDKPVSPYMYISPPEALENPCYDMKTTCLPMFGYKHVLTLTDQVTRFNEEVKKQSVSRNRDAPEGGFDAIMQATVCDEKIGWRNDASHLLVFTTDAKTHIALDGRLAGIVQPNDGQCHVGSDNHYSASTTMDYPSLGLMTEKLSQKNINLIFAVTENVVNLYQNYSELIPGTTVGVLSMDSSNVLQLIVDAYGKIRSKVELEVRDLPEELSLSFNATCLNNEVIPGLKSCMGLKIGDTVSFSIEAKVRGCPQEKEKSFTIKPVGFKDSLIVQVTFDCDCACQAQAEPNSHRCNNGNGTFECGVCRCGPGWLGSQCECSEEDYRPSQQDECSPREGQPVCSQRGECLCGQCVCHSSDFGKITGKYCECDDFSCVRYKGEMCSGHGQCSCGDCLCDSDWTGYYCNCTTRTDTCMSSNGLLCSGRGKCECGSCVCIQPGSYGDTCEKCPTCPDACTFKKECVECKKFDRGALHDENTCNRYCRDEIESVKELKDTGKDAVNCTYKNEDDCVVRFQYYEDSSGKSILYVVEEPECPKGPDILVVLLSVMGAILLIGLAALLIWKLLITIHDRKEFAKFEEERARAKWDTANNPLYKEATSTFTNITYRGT
Integrin alpha-V/beta-3, sequence (P06756 31-889 limits assumed): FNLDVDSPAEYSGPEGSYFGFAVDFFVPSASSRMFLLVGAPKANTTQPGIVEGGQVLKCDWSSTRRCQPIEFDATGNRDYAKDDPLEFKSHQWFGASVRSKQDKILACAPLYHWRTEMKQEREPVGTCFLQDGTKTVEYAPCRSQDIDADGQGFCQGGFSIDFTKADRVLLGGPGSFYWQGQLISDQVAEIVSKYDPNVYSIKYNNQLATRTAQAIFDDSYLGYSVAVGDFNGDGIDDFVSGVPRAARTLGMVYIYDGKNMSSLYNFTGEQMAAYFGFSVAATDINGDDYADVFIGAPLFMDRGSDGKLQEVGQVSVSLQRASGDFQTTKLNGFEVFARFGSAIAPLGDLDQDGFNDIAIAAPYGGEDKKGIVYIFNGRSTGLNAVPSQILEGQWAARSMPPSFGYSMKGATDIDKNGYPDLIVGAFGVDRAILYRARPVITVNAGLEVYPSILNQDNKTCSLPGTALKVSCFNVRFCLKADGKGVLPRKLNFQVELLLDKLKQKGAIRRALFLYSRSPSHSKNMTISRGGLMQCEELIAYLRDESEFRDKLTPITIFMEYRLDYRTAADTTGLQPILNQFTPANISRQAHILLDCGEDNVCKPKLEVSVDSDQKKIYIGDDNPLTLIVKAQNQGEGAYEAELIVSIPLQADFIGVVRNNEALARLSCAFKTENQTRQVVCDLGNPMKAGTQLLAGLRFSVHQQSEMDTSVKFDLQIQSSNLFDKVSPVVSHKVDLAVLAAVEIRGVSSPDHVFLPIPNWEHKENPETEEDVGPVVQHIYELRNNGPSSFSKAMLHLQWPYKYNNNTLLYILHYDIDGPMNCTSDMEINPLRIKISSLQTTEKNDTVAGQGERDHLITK
Integrin alpha-V/beta-3, sequence (P06756 891-1048 limits assumed): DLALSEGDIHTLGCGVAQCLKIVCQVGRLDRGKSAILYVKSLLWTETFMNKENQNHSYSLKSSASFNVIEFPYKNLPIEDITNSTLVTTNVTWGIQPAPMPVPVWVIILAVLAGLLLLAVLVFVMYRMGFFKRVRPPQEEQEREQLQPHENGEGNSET

For orientation: IC50 means the midpoint of a concentration-inhibition curve. A low value points to higher potency. `N=C(N)NCCC[C@H]1NC(=O)CNC(=O)[C@@H](CC(=O)O)CN[C@@H]2O[C@H](C1=O)[C@@H](OCc1ccccc1)[C@H](OCc1ccccc1)[C@H]2OCc1ccccc1` showed an IC50 not above 0.15 µM.
Under `N=C(N)NCCC[C@H]1NC(=O)CNC(=O)[C@@H](CC(=O)O)CN[C@H]2O[C@H](C1=O)[C@@H](OCc1ccccc1)[C@H](OCc1ccccc1)[C@H]2OCc1ccccc1` stands not above 0.15 µM.

Source of the values: ChEMBL document CHEMBL4118160, “Heterocycles: Versatile control elements in bioactive macrocycles” (Bioorg Med Chem, 2018).
